US11399542B2, “Pesticidally active heterocyclic derivatives with sulfur containing substituents” (SYNGENTA PARTICIPATIONS AG, priority 2017, dated 2022)

Legend:
Type in all cases: in vivo
[1] = tested on: Diabrotica balteata (Corn Root Worm); assay: Example B4: Activity against Diabrotica balteata, sprayed maize sprouts; settings: 96 h, application rate 200 ppm, L2 larvae on maize sprouts, 4 days after infestation, read-out: effect in at least one of the two categories (mortality or growth inhibition)
Method: Maize sprouts placed onto an agar layer in 24-well microtiter plates were treated with aqueous test solutions prepared from 10′000 ppm DMSO stock solutions by spraying. After drying, the plates were infested with L2 larvae (6 to 10 per well). The samples were assessed for mortality and growth inhibition in comparison to untreated samples 4 days after infestation.

[2] = tested on: Plutella xylostella (Diamond Back Moth); assay: Example B12: Activity against Plutella xylostella, artificial diet, eggs; settings: 192 h, application rate 200 ppm, eggs on artificial diet, 8 days after infestation, read-out: effect in at least one of the two categories (mortality or growth inhibition)
Method: 24-well microtiter plates with artificial diet were treated with aqueous test solutions prepared from 10′000 ppm DMSO stock solutions by pipetting. After drying, Plutella eggs were pipetted through a plastic stencil onto a gel blotting paper and the plate was closed with it. The samples were assessed for mortality and growth inhibition in comparison to untreated samples 8 days after infestation.

[3] = tested on: Spodoptera littoralis (Egyptian Cotton Leaf Worm); assay: Example B1: Activity against Spodoptera littoralis, sprayed cotton leaf discs; settings: foliar, 72 h, application rate 200 ppm, L1 larvae on cotton leaf discs, 3 days after infestation, read-out: control (at least one of mortality, anti-feedant effect, growth inhibition)
Method: Cotton leaf discs were placed onto agar in 24-well microtiter plates and sprayed with aqueous test solutions prepared from 10′000 ppm DMSO stock solutions. After drying the leaf discs were infested with five L1 larvae. The samples were assessed for mortality, anti-feeding effect, and growth inhibition in comparison to untreated samples 3 days after infestation. Control of Spodoptera littoralis by a test sample is given when at least one of the categories mortality, anti-feedant effect, and growth inhibition is higher than the untreated sample.

[4] = tested on: Euschistus heros (Neotropical Brown Stink Bug); assay: Example B9: Activity against Euschistus heros, sprayed soybean leaf; settings: 120 h, application rate 200 ppm, N2 nymphs on soybean leaf, 5 days after infestation, read-out: effect in at least one of the two categories (mortality or growth inhibition)
Method: Soybean leaf on agar in 24-well microtiter plates were sprayed with aqueous test solutions prepared from 10′000 ppm DMSO stock solutions. After drying the leaf were infested with N2 nymphs. The samples were assessed for mortality and growth inhibition in comparison to untreated samples 5 days after infestation.

[5] = tested on: Myzus persicae (Green Peach Aphid); assay: Example B5: Activity against Myzus persicae, sprayed sunflower leaf discs; settings: foliar, 144 h, application rate 200 ppm, mixed-age aphids on sunflower leaf discs, 6 days after infestation
Method: Sunflower leaf discs were placed on agar in a 24-well microtiter plate and sprayed with aqueous test solutions prepared from 10′000 ppm DMSO stock solutions. After drying, the leaf discs were infested with an aphid population of mixed ages. The samples were assessed for mortality 6 days after infestation.

[6] = tested on: Myzus persicae (Green Peach Aphid); assay: Example B6: Activity against Myzus persicae, systemic via roots of pea seedlings; settings: 144 h, test rate 24 ppm, pea seedling roots in test solution, 6 days
Method: Roots of pea seedlings infested with an aphid population of mixed ages were placed directly in the aqueous test solutions prepared from 10′000 DMSO stock solutions. The samples were assessed for mortality 6 days after placing seedlings in test solutions.

CCS(=O)(=O)c1cc2c(cc1-c1nc3cc(SC(F)(F)F)ccc3o1)n(C)c(=O)n2C [Compound P29, 5-ethylsulfonyl-1,3-dimethyl-6-[5-(trifluoromethylsulfanyl)-1,3-benzoxazol-2-yl]benzimidazol-2-one]
percent effect (mortality or growth inhibition) at 200 ppm [1]: ≥ 80% | percent effect (mortality or growth inhibition) at 200 ppm [2]: ≥ 80% | percent control (mortality, anti-feedant effect or growth inhibition) at 200 ppm [3]: ≥ 80% | percent effect (mortality or growth inhibition) at 200 ppm [4]: ≥ 80%

CCS(=O)(=O)c1cc2c(nc1-c1nc3cc([S+]([O-])C(F)(F)F)ccc3n1C)n(C)c(=O)n2C (centres unmarked) [Compound P43, 6-ethylsulfonyl-1,3-dimethyl-5-[1-methyl-5-(trifluoromethyl-sulfinyl)benzimidazol-2-yl]imidazo[4,5-b]pyridin-2-one]
percent effect (mortality or growth inhibition) at 200 ppm [2]: ≥ 80% | mortality at 200 ppm [5]: ≥ 80% | mortality at 24 ppm [6]: ≥ 80% | percent effect (mortality or growth inhibition) at 200 ppm [4]: ≥ 80%

CCS(=O)(=O)c1cc2c(nc1-c1nc3cc(SC(F)(F)F)ccc3o1)n(C)c(=O)n2C [Compound P35, 6-ethylsulfonyl-1,3-dimethyl-5-[5-(trifluoromethylsulfanyl)-1,3-benzoxazol-2-yl]imidazo[4,5-b]pyridin-2-one]
percent effect (mortality or growth inhibition) at 200 ppm [1]: ≥ 80% | percent effect (mortality or growth inhibition) at 200 ppm [2]: ≥ 80% | percent control (mortality, anti-feedant effect or growth inhibition) at 200 ppm [3]: ≥ 80%

CCOC(=O)n1c(=O)n(C)c2cc(S(=O)(=O)CC)c(-c3nc4cc(C(F)(F)F)cnc4n3C)cc21 [Compound P23, ethyl 5-ethylsulfonyl-3-methyl-6-[3-methyl-6-(trifluoromethyl)imidazo[4,5-b]pyridine-2-yl]-2-oxo-benzimidazole-1-carboxylate]
percent effect (mortality or growth inhibition) at 200 ppm [1]: ≥ 80% | mortality at 200 ppm [5]: ≥ 80% | mortality at 24 ppm [6]: ≥ 80%

CCS(=O)(=O)c1cc2c(cc1-c1nc3cc(C(F)(F)F)cnc3n1C)n(S(=O)(=O)C1CC1)c(=O)n2C [Compound P13, 1-cyclopropylsulfonyl-5-ethylsulfonyl-3-methyl-6-[3-methyl-6-(trifluoromethyl)imidazo[4,5-b]pyridin-2-yl]benzimidazol-2-one]
mortality at 200 ppm [5]: ≥ 80% | mortality at 24 ppm [6]: ≥ 80%

CCS(=O)(=O)c1cc2c(cc1-c1nc3cc(S(=O)(=O)C(F)(F)F)ccc3n1C)n(C)c(=O)n2C [Compound P37, 5-ethylsulfonyl-1,3-dimethyl-6-[1-methyl-5-(trifluoromethyl-sulfonyl)benzimidazol-2-yl]benzimidazol-2-one]
percent effect (mortality or growth inhibition) at 200 ppm [2]: ≥ 80% | mortality at 200 ppm [5]: ≥ 80% | percent effect (mortality or growth inhibition) at 200 ppm [4]: ≥ 80%

CCS(=O)(=O)c1cc2c(cc1-c1nc3cc([S+]([O-])C(F)(F)F)ccc3n1C)n(C)c(=O)n2C (centres unmarked) [Compound P44, 5-ethylsulfonyl-1,3-dimethyl-6-[1-methyl-5-(trifluoromethyl-sulfinyl)benzimidazol-2-yl]benzimidazol-2-one]
percent effect (mortality or growth inhibition) at 200 ppm [2]: ≥ 80% | mortality at 200 ppm [5]: ≥ 80% | mortality at 24 ppm [6]: ≥ 80% | percent effect (mortality or growth inhibition) at 200 ppm [4]: ≥ 80%

CCSc1cc2c(cc1-c1nc3cc(SC(F)(F)F)ccc3n1C)n(C)c(=O)n2C [Compound P42, 5-ethylsulfanyl-1,3-dimethyl-6-[1-methyl-5-(trifluoromethyl-sulfanyl)benzimidazol-2-yl]benzimidazol-2-one]
percent effect (mortality or growth inhibition) at 200 ppm [2]: ≥ 80% | percent effect (mortality or growth inhibition) at 200 ppm [4]: ≥ 80%

CCSc1cc2c(cc1-c1nc3cc(C(F)(F)F)ncc3n1C)n(C)c(=O)n2C [Compound P10, 5-ethylsulfanyl-1,3-dimethyl-6-[3-methyl-6-(trifluoromethyl)imidazo[4,5-c]pyridin-2-yl]benzimidazol-2-one]
percent effect (mortality or growth inhibition) at 200 ppm [4]: ≥ 80%

CCS(=O)(=O)c1cc2c(cc1-c1nc3cc(S(=O)(=O)C(F)(F)F)ccc3o1)n(C)c(=O)n2C [Compound P25, 5-ethylsulfonyl-1,3-dimethyl-6-[5-(trifluoromethylsulfonyl)-1,3-benzoxazol-2-yl]benzimidazol-2-one]
percent effect (mortality or growth inhibition) at 200 ppm [1]: ≥ 80% | percent effect (mortality or growth inhibition) at 200 ppm [2]: ≥ 80% | percent control (mortality, anti-feedant effect or growth inhibition) at 200 ppm [3]: ≥ 80% | percent effect (mortality or growth inhibition) at 200 ppm [4]: ≥ 80%

CCS(=O)(=O)c1cc2c(cc1-c1nc3cc(C(F)(F)F)nnc3n1C)n(C)c(=O)n2C [Compound P11, 5-ethylsulfonyl-1,3-dimethyl-6-[7-methyl-3-(trifluoromethyl)imidazo[4,5-c]pyridazin-6-yl]benzimidazol-2-one]
mortality at 200 ppm [5]: ≥ 80% | mortality at 24 ppm [6]: ≥ 80% | percent effect (mortality or growth inhibition) at 200 ppm [4]: ≥ 80%

CCSc1cc2c(nc1-c1nc3cc(C(F)(F)F)cnc3n1C)n(C)c(=O)n2C [Compound P24, 6-ethylsulfanyl-1,3-dimethyl-5-[3-methyl-6-(trifluoromethyl)imidazo[4,5-b]pyridine-2-yl]imidazo[4,5-b]pyridine-2-one]
percent effect (mortality or growth inhibition) at 200 ppm [1]: ≥ 80%

CCS(=O)(=O)c1cc2c(cc1-c1nc3cc(C(F)(F)F)ccc3o1)n(C)c(=O)n2C [Compound P40, 5-ethylsulfonyl-1,3-dimethyl-6-[5-(trifluoromethyl)-1,3-benzoxazol-2-yl]benzimidazol-2-one]
percent effect (mortality or growth inhibition) at 200 ppm [2]: ≥ 80%

CCS(=O)(=O)c1cc2c(cc1-c1nc3cc(C(F)(F)F)cnc3n1C)n(CC(F)(F)F)c(=O)n2C [Compound P19, 6-ethylsulfonyl-1-methyl-5-[3-methyl-6-(trifluoromethyl)imidazo[4,5-b]pyridine-2-yl]-3-(2,2,2-trifluoroethyl) benzimidazol-2-one]
percent effect (mortality or growth inhibition) at 200 ppm [1]: ≥ 80% | mortality at 200 ppm [5]: ≥ 80% | mortality at 24 ppm [6]: ≥ 80% | percent control (mortality, anti-feedant effect or growth inhibition) at 200 ppm [3]: ≥ 80% | percent effect (mortality or growth inhibition) at 200 ppm [4]: ≥ 80%

CCS(=O)(=O)c1cc2c(cc1-c1nc3cc(C(F)(F)F)cnc3n1C)n(C(=O)C1CC1)c(=O)n2C [Compound P20, 1-(cyclopropanecarbonyl)-5-ethylsulfonyl-3-methyl-6-[3-methyl-6-(trifluoromethyl)imidazo[4,5-b]pyridine-2-yl]benzimidazol-2-one]
mortality at 200 ppm [5]: ≥ 80%

CCS(=O)(=O)c1cc2c(nc1-c1nc3cc(S(=O)(=O)C(F)(F)F)ccc3o1)n(C)c(=O)n2C [Compound P26, 6-ethylsulfonyl-1,3-dimethyl-5-[5-(trifluoromethylsulfonyl)-1,3-benzoxazol-2-yl]imidazo[4,5-b]pyridine-2-one]
percent effect (mortality or growth inhibition) at 200 ppm [1]: ≥ 80% | percent effect (mortality or growth inhibition) at 200 ppm [2]: ≥ 80% | percent control (mortality, anti-feedant effect or growth inhibition) at 200 ppm [3]: ≥ 80%

CCS(=O)(=O)c1cc2c(cc1-c1nc3cc(C(F)(F)F)cnc3n1C)n(CSC)c(=O)n2C [Compound P17, 6-ethylsulfonyl-1-methyl-3-(methylsulfanylmethyl)-5-[3-methyl-6-(trifluoromethyl)imidazo[4,5-b]pyridine-2-yl]benzimidazol-2-one]
mortality at 200 ppm [5]: ≥ 80% | mortality at 24 ppm [6]: ≥ 80% | percent effect (mortality or growth inhibition) at 200 ppm [4]: ≥ 80%
